Test results reported in patent publication US4075340A, “Thieno [2,3-C] pyridine derivatives and therapeutic composition containing same” (Parcor, priority 1975, dated 1978).
Counter-ions that a name gives are not always drawn. Like-named read-outs stand apart in the source and are kept apart here.

Assays:
[1] = acute toxicity, LD50 /24 hrs/kg body weight, intravenous route, method according to Miller and Tainter; conditions: in vivo
[2] = tested on: blood platelet aggregation; assay: Inhibiting activity on blood platelet aggregation (adenosine diphosphate induced, turbidimetric assay); assay type: in vivo; conditions: rat plasma, animals administered 100 mg/kg, read-out: percent inhibition on blood platelet aggregation
Procedure: Rat plasma, prepared to contain 600,000+20,000 blood platelets per mm3 is normally cloudy. Addition of adenosine diphosphate induces blood platelet aggregation and, thus an increase of the light transmission. When the same test is effected with a plasma prepared from the blood of an animal which has been administered 100 mg/kg of a derivative having an inhibiting effect on blood platelet aggregation, there is no aggregation of the blood platelets and the serum remains cloudy. The turbidimetric assay effected with a spectrophotometer provides a measure of the inhibiting activities of the test derivatives on blood platelet aggregation.

[3] = tested on: carrageenin-induced edema in rats; assay: Localized Carrageenin-induced Edema Method; assay type: in vivo; conditions: Rattus norvegicus, oral 100 mg/kg, repeated (1 hour before, with, 1 and 2.5 hours after carrageenin)
Procedure: a) Localized Carrageenin-induced Edema Method
0.1 ml of a 1% carrageenin solution is injected at time 0 in the metatarsal flexor muscles of the right hind limb of rats. The animals of the treated group are administered orally, additionally, 100 mg/kg of the test derivative, respectively one hour prior to and then simultaneously with the phlogogenic agent, and then one hour and 2.5 hours thereafter. The determinations effected with a ROCH micrometer at times 0, 1 hour, 2 hrs, 3 hrs and 5hrs after carrageenin administration, make it possible to determine the percent anti-inflammatory activity, as a function of time.

[4] = tested on: ovalbumin-induced systemic edema in rats; assay: Ovalbumin-induced Systemic Edema Method; assay type: in vivo; conditions: Rattus norvegicus, oral 100 mg/kg, 1 hour before and with ovalbumin
Procedure: b) Ovalbumin-induced Systemic Edema Method
Rats are administered a simultaneous intraperitoneal injection of 1 ml ovalbumin and 0.5 ml of a 1% aqueous Evans Blue solution. The animals of the treated group are additionally administered orally 100 mg/kg of the test derivative, one hour prior to ovalbumin administration and then simultaneously with said ovalbumin administration. The intensity of the phenomenon thus induced is rated according to a scale from 1 to 5, according to the progress of the inflammatory syndrome. The measurements are effected after 2 hours and after 3 hours. Thus are determined the mean intensity of the edema and the percent decrease of the edema reaction.

[5] = after 1 hour, read-out: Percent anti-inflammatory activity after 1 hour
[6] = after 2 hours, read-out: Percent anti-inflammatory activity after 2 hours
[7] = after 5 hours, read-out: Percent anti-inflammatory activity after 5 hours
[8] = after 2 hours, read-out: Percent decrease (of the edema reaction) after 2 hours
[9] = after 3 hours, read-out: Percent decrease (of the edema reaction) after 3 hours

COc1ccc(OC)c(C(O)CN2CCc3ccsc3C2C)c1 (stereo not shown) [Derivative No. 34, 6-[2-(2,5-dimethoxy-phenyl)-2-hydroxy-ethyl]-7-methyl-4,5,6,7-tetrahydro-thieno[2,3-c]pyridine]
LD50 at 24 h [1]: 84 mg/kg

Fc1ccccc1CN1CCc2ccsc2C1 [Derivative No. 26, 6-o.fluorobenzyl-4,5,6,7-tetrahydro-thieno[2,3-c]pyridine, fumarate]
LD50 at 24 h [1]: 87 mg/kg

COc1cccc(C(CN2CCc3ccsc3C2)OC(C)=O)c1 (stereo not shown) [Derivative No. 10, 6-(2-acetoxy-2m.methoxyphenyl-ethyl)-4,5,6,7-tetrahydro-thieno[2,3-c]pyridine]
LD50 at 24 h [1]: 80 mg/kg

COc1cccc(C(O)CN2CCc3ccsc3C2C)c1 (stereo not shown) [Derivative No. 33, 6-(2-hydroxy-2-m.methoxyphenyl-ethyl)-7-methyl-4,5,6,7,-tetrahydro-thieno[2,3-c]pyridine]
inhibition at 100 mg/kg [2]: 74%

O=C(O)c1ccccc1CN1CCc2ccsc2C1 [Derivative No. 5, 6-o-carboxybenzyl-4,5,6,7-tetrahydro-thieno[2,3-c]pyridine]
inhibition in vivo at 100 mg/kg [3, 5]: 44% | inhibition in vivo at 100 mg/kg [3, 6]: 52% | inhibition in vivo at 100 mg/kg [3, 7]: 60% | inhibition in vivo at 100 mg/kg [4, 8]: 42% | inhibition in vivo at 100 mg/kg [4, 9]: 61%

OC(CN1CCc2ccsc2C1)c1ccc(Cl)cc1 (stereo not shown) [Derivative No. 27, 6-(2-hydroxy-2-p.chlorophenyl-ethyl)-4,5,6,7-tetrahydro-thieno[2,3-c]pyridine]
LD50 at 24 h [1]: 45 mg/kg | inhibition at 100 mg/kg [2]: 86%

COc1cccc(CN2CCc3ccsc3C2)c1 [Derivative No. 20, 6-m.methoxybenzyl-4,5,6,7-tetrahydro-thieno-[2,3-c]pyridine, hydrochloride]
LD50 at 24 h [1]: 63 mg/kg

COc1ccc(OCC(O)CN2CCc3ccsc3C2)cc1 (stereo not shown) [Derivative No. 35, 6-(2-hydroxy-3-p.methoxyphenoxy-propyl)-4,5,6,7-tetrahydro-thieno[2,3-c]pyridine, hydrochloride]
LD50 at 24 h [1]: 19 mg/kg

CC1c2sccc2CCN1CCc1ccccc1 (stereo not drawn) [Derivative No. 31, 7-methyl-6-β-phenethyl-4,5,6,7-tetrahydro-thieno[2,3-c]pyridine, maleate]
LD50 at 24 h [1]: 53 mg/kg

Cc1ccc(CN2CCc3ccsc3C2)cc1 [Derivative No. 24, 6-p.methylbenzyl-4,5,6,7-tetrahydro-thieno[2,3-c]pyridine, hydrochloride]
LD50 at 24 h [1]: 45 mg/kg | inhibition at 100 mg/kg [2]: 78%

COc1cc(CN2CCc3ccsc3C2)cc(OC)c1OC.O=C(O)/C=C\C(=O)O [Derivative No. 17, 6-(3,4,5-trimethoxy-benzyl)-4,5,6,7-tetrahydro-thieno[2,3-c]pyridine, maleate]
LD50 at 24 h [1]: 80 mg/kg

Clc1ccc(CN2CCc3ccsc3C2)cc1 [Derivative No. 21, 6-p.chlorobenzyl-4,5,6,7-tetrahydro-thieno[2,3-c]pyridine, hydrochloride]
LD50 at 24 h [1]: 55 mg/kg | inhibition at 100 mg/kg [2]: 91%

CC(=O)CCN1CCc2ccsc2C1.O=C(O)/C=C\C(=O)O [Derivative No. 36, 6-(3-oxo-butyl)-4,5,6,7-tetrahydro-thieno[2,3-c]-pyridine, maleate]
LD50 at 24 h [1]: 16 mg/kg

CC(=O)OC(CN1CCc2ccsc2C1)c1ccc(Cl)cc1 (stereo not shown) [Derivative No. 8, 6-(2-acetoxy-2-p-chlorophenyl-ethyl)-4,5,6,7-tetrahydro-thieno[2,3-c]pyridine]
inhibition in vivo at 100 mg/kg [3, 5]: 40% | inhibition in vivo at 100 mg/kg [3, 6]: 49% | inhibition in vivo at 100 mg/kg [3, 7]: 59% | inhibition in vivo at 100 mg/kg [4, 8]: 45% | inhibition in vivo at 100 mg/kg [4, 9]: 58%

COc1ccc(CN2CCc3ccsc3C2)cc1OC.Cl [Derivative No. 25, 6-(3,4-dimethoxy-benzyl)-4,5,6,7-tetrahydro-thieno[2,3-c]pyridine, hydrochloride]
LD50 at 24 h [1]: 90 mg/kg

O=[N+]([O-])c1ccc(CN2CCc3ccsc3C2)cc1 [Derivative No. 12, 6-p-nitrobenzyl-4,5,6,7-tetrahydro-thieno[2,3-c]pyridine]
inhibition at 100 mg/kg [2]: 75%

CCCCCCCCCCCCN1CCc2ccsc2C1 [Derivative No. 1, 6-n-dodecyl-4,5,6,7-tetrahydro-thieno[2,3-c]pyridine]
inhibition in vivo at 100 mg/kg [3, 5]: 38% | inhibition in vivo at 100 mg/kg [3, 6]: 46% | inhibition in vivo at 100 mg/kg [3, 7]: 54% | inhibition in vivo at 100 mg/kg [4, 8]: 36% | inhibition in vivo at 100 mg/kg [4, 9]: 51%

COc1cccc(C(CN2CCc3ccsc3C2)OC(C)=O)c1 (stereo not shown) [compound 10]
inhibition in vivo at 100 mg/kg [3, 5]: 43% | inhibition in vivo at 100 mg/kg [3, 6]: 50% | inhibition in vivo at 100 mg/kg [3, 7]: 56% | inhibition in vivo at 100 mg/kg [4, 8]: 48% | inhibition in vivo at 100 mg/kg [4, 9]: 55%

OC(CN1CCc2ccsc2C1)c1ccc(F)cc1 (stereo not shown) [Derivative No. 29, 6-(2-hydroxy-2-p.fluorophenyl-ethyl)-4,5,6,7-tetrahydro-thieno[2,3-c]pyridine]
LD50 at 24 h [1]: 60 mg/kg | inhibition at 100 mg/kg [2]: 89%

Cl.O=[N+]([O-])c1ccccc1CN1CCc2ccsc2C1 [Derivative No. 11, 6-o-nitrobenzyl-4,5,6,7-tetrahydro-thieno[2,3-c]pyridine, hydrochloride]
LD50 at 24 h [1]: 160 mg/kg

Cl.OC(CN1CCc2ccsc2C1)c1ccccc1 (stereo not shown) [Derivative No. 23, 6-(2-hydroxy-2-phenyl-ethyl)-4,5,6,7-tetrahydro-thieno[2,3-c]pyridine, hydrochloride]
LD50 at 24 h [1]: 67 mg/kg

COc1ccc(CN2CCc3ccsc3C2)c(OC)c1OC [compound 28]
inhibition in vivo at 100 mg/kg [3, 5]: 43% | inhibition in vivo at 100 mg/kg [3, 6]: 52% | inhibition in vivo at 100 mg/kg [3, 7]: 61% | inhibition in vivo at 100 mg/kg [4, 8]: 45% | inhibition in vivo at 100 mg/kg [4, 9]: 63%

COc1cc(CN2CCc3ccsc3C2C)cc(OC)c1OC (stereo not shown) [Derivative No. 3, 7-methyl-6-(3,4,5-trimethoxy-benzyl)-4,5,6,7-tetrahydro-thieno[2,3-c]pyridine]
inhibition at 100 mg/kg [2]: 91%

c1ccc(CCN2CCc3ccsc3C2)cc1 [Derivative No. 19, 6-β-phenethyl-4,5,6,7-tetrahydro-thieno[2,3-c]pyridine, hydrochloride]
LD50 at 24 h [1]: 48 mg/kg

COc1ccc(C(=O)C[n+]2ccc3ccsc3c2C)cc1.[Br-] [Derivative No. 44, 7-methyl-6-p-methoxyphenacyl-thieno[2,3-c]pyridinium bromide]
LD50 at 24 h [1]: 51 mg/kg

OC(CN1CCc2ccsc2C1)C(Cl)(Cl)Cl (stereo not shown) [Derivative No. 37, 6-(2-hydroxy-3,3,3-trichloro-propyl)-4,5,6,7-tetrahydro-thieno[2,3-c]pyridine]
LD50 at 24 h [1]: 18 mg/kg

Clc1ccc(CN2CCc3ccsc3C2)s1 [Derivative No. 6, 6-[2-(5-chloro-thienyl)-methyl]-4,5,6,7-tetrahydro-thieno[2,3-c]pyridine]
LD50 at 24 h [1]: 135 mg/kg

COc1ccc(OC)c(C(O)CN2CCc3ccsc3C2C)c1 (stereo not shown) [compound 34]
inhibition in vivo at 100 mg/kg [3, 5]: 37% | inhibition in vivo at 100 mg/kg [3, 6]: 48% | inhibition in vivo at 100 mg/kg [3, 7]: 58% | inhibition in vivo at 100 mg/kg [4, 8]: 45% | inhibition in vivo at 100 mg/kg [4, 9]: 61%

COc1ccc(CN2CCc3ccsc3C2)cc1OC [Derivative No. 38, 6-(3,4-dimethoxy-benzyl)-4,5,6,7-tetrahydro-thieno[2,3-c]pyridine]
LD50 at 24 h [1]: 22 mg/kg

OC(CN1CCc2ccsc2C1)c1ccccc1 (stereo not shown) [compound 23]
inhibition in vivo at 100 mg/kg [3, 5]: 39% | inhibition in vivo at 100 mg/kg [3, 6]: 51% | inhibition in vivo at 100 mg/kg [3, 7]: 58% | inhibition in vivo at 100 mg/kg [4, 8]: 50% | inhibition in vivo at 100 mg/kg [4, 9]: 61%

COc1ccc(CN2CCc3ccsc3C2)cc1 [Derivative No. 18, 6-p.methoxybenzyl-4,5,6,7-tetrahydro-thieno[2,3-c]pyridine, hydrochloride]
LD50 at 24 h [1]: 60 mg/kg | inhibition at 100 mg/kg [2]: 78%

CC(O)CN1CCc2ccsc2C1.Cl (stereo not shown) [Derivative No. 9, 6-(2-hydroxy-propyl)-4,5,6,7-tetrahydro-thieno[2,3-c]pyridine, hydrochloride]
LD50 at 24 h [1]: 120 mg/kg | inhibition at 100 mg/kg [2]: 89%

Cc1c2sccc2cc[n+]1CC(=O)c1ccccc1.[Br-] [Derivative No. 39, 7-methyl-6-phenacyl-thieno[2,3-c]pyridinium bromide]
LD50 at 24 h [1]: 35 mg/kg

CC1c2sccc2CCN1CC(O)c1ccccc1 (stereo not shown) [Derivative No. 7, 6-(2-hydroxy-2-phenyl-ethyl)-7-methyl-4,5,6,7-tetrahydro-thieno[2,3-c]pyridine]
inhibition at 100 mg/kg [2]: 85%

COc1ccc(C(O)CN2CCc3ccsc3C2)cc1 (stereo not shown) [compound 30]
inhibition in vivo at 100 mg/kg [3, 5]: 38% | inhibition in vivo at 100 mg/kg [3, 6]: 44% | inhibition in vivo at 100 mg/kg [3, 7]: 51% | inhibition in vivo at 100 mg/kg [4, 8]: 39% | inhibition in vivo at 100 mg/kg [4, 9]: 59%
